# Source: article PMC12081905, “Ortho-functionalization of a ^211At-labeled aryl compound provides stabilization of the C-At bond against oxidative dehalogenation” (Scientific Reports, 2025)
# What was measured:
# [1] = Stability assay in oxidizing/acidic medium (chemical oxidation assay, KMnO4); format: physicochemical; details: radio-HPLC
# Description: Stability of ^211At-labeled compounds in oxidizing media. […] Adapted from Teze et al.[10], it consists in an incubation of the ^211At-labeled product in 50 mM acetate buffer (pH = 4.7) containing a 1 mM potassium permanganate solution (Fig. 5).
# (§1) ^211At was produced at the Arronax cyclotron facility using the ^209Bi(α,2n) ^211At reaction and recovered from the irradiated target in chloroform using a dry distillation protocol adapted from the procedure previously reported by Lindegren et al.[26] Before use, the ^211At solution was reduced to dryness under a gentle stream of nitrogen. […] To quantify free astatine that remains trapped in the HPLC system during the elution, 50 µL of an aqueous sodium sulfite solution (10 mg mL^−1) were injected after each analysis to release free astatine from the HPLC system with the flow rate set at 1.20 mL/min with the following gradient: t = 0: 90% A, 10% B; t = 2–6 min: 100% B with A = H2O with 0.05% TFA and B = CH3CN with 0.05% TFA. The non-radioactive iodinated compounds were analyzed using this HPLC system and their retention times were used as references for identification of their astatinated analogues. […]
# Each peak is then integrated, providing each peak area (noted A(A), A(B) etc…) to quantify the species present. […]
# [2] = parameters: method as in PMID 28566709; details: DFT, resulting oxidized compounds; cited from earlier work
# [3] = tested on: rat liver microsomes (CYP450); test: Stability assay in rat liver microsomal medium with NADPH regeneration system; format: in vitro ADME; details: 37 °C, radio-HPLC
# Excerpt: (§2) Since oxidation by CYP450 enzymes is a plausible cause of oxidative deastatination within targeted cells or in the liver, we also assessed the stability of our compounds against liver microsomes. Liver microsomes contain CYP450, a family of oxidase enzymes that were used in our assay, adapted from Schmitt et al.[14] and using a nicotinamide adenine dinucleotide phosphate (NADPH) redox regeneration system to regenerate the redox properties of CYP450. For comparison, we performed the stability assay in rat and human liver microsomes (Fig. 7).
# as §1, with “al.[26]” for “al.[26] Before use, the ^211At solution was reduced to dryness under a gentle stream of nitrogen.”
# [4] = tested on: human liver microsomes (CYP450); test: Stability assay in human liver microsomal medium with NADPH regeneration system; format: in vitro ADME; details: 37 °C, radio-HPLC
# Excerpt: as §2
# as §1, with “al.[26]” for “al.[26] Before use, the ^211At solution was reduced to dryness under a gentle stream of nitrogen.”
compound,measurement,setting,value
"OCc1ccccc1[211At] [compound 2, (2-[^211At]astatophenyl)methanol]",free astatine (release of astatine) after 20 h incubation in oxidizing medium,"[1]; 50 mM acetate buffer pH 4.7, 1 mM KMnO4, room temperature, 20 h, n = 3",12%
"CCOC(=O)c1cccc([211At])c1 [compound 1, ethyl 3-[^211At]astatobenzoate]",bond dissociation energy of the carbon-halogen bond,[2],28.2 kcal mol^−1
"CCNC(=O)c1cccc([211At])c1 [[^211At]AEB, 3-[^211At]astato-N-ethylbenzamide]",fate of the starting 211At-compound in oxidizing medium,"[1]; 50 mM acetate buffer pH 4.7, 1 mM KMnO4, up to 20 h",almost complete degradation
same,starting compound / metabolites after 20 h incubation in rat microsomes,[3],practically no presence of the starting compound
same,starting compound / metabolites after 20 h incubation in human microsomes,[4],practically no presence of the starting compound
